Tests used:
[1] = test system: 5xFAD transgenic mice; assay: Amyloid pathology in 5xFAD mice (IHC, Thioflavin S, ELISA); format: in vivo, mouse
Text: Female 5xFAD transgenic mice (9–10 weeks old) were used to evaluate the efficacy of 0152 in reducing amyloid pathology. Mice were housed under Indiana University standard laboratory conditions. For intraperitoneal (IP) administration, mice received either vehicle or 0152 (indicated concentrations) in a formulation consisting of 20% DMSO, 20% Cremophor EL, and 60% PBS. For oral (PO) administration, mice received either vehicle or 0152 (indicated concentrations) in a formulation consisting of 10% NMP (N‐methyl‐2‐pyrrolidone), 10% PG (Propylene Glycol), 5% Solutol HS‐15, and 75% Captisol (10% w/v in RO water). At the end of the treatment period, mice were sacrificed, and their brains were collected for histological analysis. Brain tissues were fixed in 10% Formalin, embedded in paraffin, and sectioned. Thioflavin S staining was performed to visualize β‐sheet‐rich amyloid plaques, and immunohistochemistry was conducted using the 6E10 monoclonal antibody to detect Aβ plagues. Body weights were recorded daily throughout the study.
iPSC‐Ns or HEK‐APP695WT were treated with drugs, and secreted Aβ42 peptides inculture soup were quantified using the Human Amyloid β1‐42 human ELISA kit (Thermo Fisher) according to the manufacturer's protocol. Mouse brain extraction was performed as previously described, with minor modifications. Mouse brain tissues were homogenized at a 1:10 weight‐to‐volume ratio in Tris‐buffered saline (TBS; 50 mM Tris, pH 7.4, 150 mM NaCl) supplemented with 2 mM EDTA and protease inhibitors. TBS‐homogenized brains were centrifuged for 1 h at 16 000 g. To extract total Aβ, including insoluble fractions, formic acid was added to a final concentration of 70%, and the samples were thoroughly mixed by pipetting. Homogenates were centrifuged at 100 000 g for 1 h at 4°C, and the resulting supernatants were collected. Prior to quantification, formic acid‐containing samples were neutralized with 1 M Tris base (pH 11). Aβ40 and Aβ42 levels were measured using human‐specific ELISA kits (Invitrogen) and normalized to total protein concentrations determined by the BCA assay (Thermo Scientific). For Aβ quantification in 3D organoids, 3D organoids’ processing and ELISA analysis were performed with minor modifications from previously described protocols. Briefly, cerebral organoids were lysed in RIPA buffer supplemented with protease and phosphatase inhibitor cocktails (Sigma), followed by sonication and incubation on ice for 60 min. Lysates were centrifuged at 13 000 rpm for 1 h at 4°C, and the supernatants were collected as the RIPA‐soluble fraction. The remaining pellets were resuspended in 70% formic acid, sonicated, and subsequently neutralized with Tris buffer to obtain the formic acid‐solubilized fraction. Aβ42 levels in both fractions were measured using human‐specific ELISA kits (Thermo Fisher) according to the manufacturer's instructions. Formic acid extracts were appropriately neutralized prior to ELISA. Aβ levels were normalized to total protein concentration determined by BCA assay.
Autopsy samples of brain tissues were provided, and immunohistochemistry was performed in the Department of Pathology and Laboratory Medicine, Indiana University School of Medicine, following the institutional protocols. Paraffin‐embedded 3D organoids and human AD patient brain samples were subjected to Hematoxylin and Eosin (H&E), synapses, GFAP, CAPRIN1 (polyclonal Rabbit anti‐CAPRIN1, 15112‐1‐AP, Proteintech), APP (monoclonal mouse anti‐APP/Aβ (6E10), 803001, Biolegend; MAB348, Millipore Sigma) in a Dako automated instrument using the Dako Flex detection system. The primary antibodies and secondary antibodies were used in colocalization experiments with human AD brain biopsy samples, then imaged using a confocal microscope system. Thioflavin‐S was stained with deparaffinization and rehydration of mouse brain sections using a series of xylene and ethanol washes. […]

[2] = test system: AD iPSC‐derived organoids; assay: AD iPSC-derived 3D brain organoids; format: cell-based, human
Method: For generating brain 3D organoids, Lancaster's protocol and Paşca's protocol were used with minor modifications. In brief, 9000 cells/ 100 µL of each well were seeded in Ultra‐low attachment 96 well U‐bottom plates (Sbio) supplemented with 10 µM of ROCK inhibitor. The next day, 100 µL of mTeSR1 was added, and the cells were cultured as embryonic bodies (EB) for 5 days at 37°C in 5% CO2 incubator. When the size of EB reached 400–600 µm, EBs were transferred into ultra‐low binding 24 well (Corning) with 200 µL of neural differentiation medium (Neurobasal medium (Gibco), 2% B27, 1X Glutamax) with 2 µg/mL of Doxycycline and incubated for 5 days at 37°C in 5% CO2 incubator until the size of EB was 700–800 µm. During this step, one EB was in one well, and the culture medium was changed every day with fresh neural differentiation medium with Doxycycline. At day 10, the EB was embedded into 15 µL of 100% Matrigel (Corning), and the embedded EBs were cultured in neural differentiation medium without Doxycycline in 6 well ultra‐low binding plates (Corning). […]
iPSC‐Ns or HEK‐APP695WT were treated with drugs, and secreted Aβ42 peptides inculture soup were quantified using the Human Amyloid β1‐42 human ELISA kit (Thermo Fisher) according to the manufacturer's protocol. […] Prior to quantification, formic acid‐containing samples were neutralized with 1 M Tris base (pH 11). Aβ40 and Aβ42 levels were measured using human‐specific ELISA kits (Invitrogen) and normalized to total protein concentrations determined by the BCA assay (Thermo Scientific). For Aβ quantification in 3D organoids, 3D organoids’ processing and ELISA analysis were performed with minor modifications from previously described protocols. […] Aβ42 levels in both fractions were measured using human‐specific ELISA kits (Thermo Fisher) according to the manufacturer's instructions. […] Aβ levels were normalized to total protein concentration determined by BCA assay. […]

[3] = target: APP (Homo sapiens, UniProt P05067); assay: Western blot of APP in HEK-APP695WT cells; format: cell-based; design: expressed in transfected cells; conditions: 72 h
[4] = 80 mg/kg IP twice per day, 30 days

Sequence of APP (P05067 18-695 isoform P05067-4 limits assumed): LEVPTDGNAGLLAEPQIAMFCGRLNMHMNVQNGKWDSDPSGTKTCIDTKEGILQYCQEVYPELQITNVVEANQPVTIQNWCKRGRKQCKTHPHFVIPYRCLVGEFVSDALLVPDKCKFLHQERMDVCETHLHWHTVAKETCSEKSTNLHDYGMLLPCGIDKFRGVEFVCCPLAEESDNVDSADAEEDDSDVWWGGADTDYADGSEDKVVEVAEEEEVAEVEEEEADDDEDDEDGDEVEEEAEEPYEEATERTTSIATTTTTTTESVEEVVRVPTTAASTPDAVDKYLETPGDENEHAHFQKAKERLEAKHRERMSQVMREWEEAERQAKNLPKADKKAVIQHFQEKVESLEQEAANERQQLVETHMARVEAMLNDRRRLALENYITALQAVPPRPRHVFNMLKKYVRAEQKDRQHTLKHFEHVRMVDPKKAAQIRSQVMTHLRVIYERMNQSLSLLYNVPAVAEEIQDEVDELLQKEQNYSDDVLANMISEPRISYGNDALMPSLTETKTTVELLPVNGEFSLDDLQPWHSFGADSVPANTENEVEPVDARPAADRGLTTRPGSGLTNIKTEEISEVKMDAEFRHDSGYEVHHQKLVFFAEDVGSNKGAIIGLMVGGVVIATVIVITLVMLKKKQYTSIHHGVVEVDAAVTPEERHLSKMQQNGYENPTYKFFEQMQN

Structure (SMILES)	APP/Aβ-positive areas and plaque sizes in subiculum and hippocampus, plaque sizes in cortex (IHC) [1, 4]	Fibrillar Aβ plaques in subiculum (Thioflavin S) [1, 4]	APP/Aβ-positive areas and plaque sizes in subiculum (IHC, Thioflavin S) ([1]; 80 mg/kg oral gavage twice daily, 30 days)	APP/Aβ-positive area and amyloid plaque size, hippocampus and subiculum (IHC) ([1]; 100 mg/kg IP daily, 24 days)	Aβ40 and Aβ42 levels in hemispheric brain lysates (ELISA) ([1]; 100 mg/kg IP daily, 24 days)	Fibrillar Aβ plaques in subiculum (Thioflavin S) ([1]; 100 mg/kg IP daily, 24 days)	Plaque burden in cortex (IHC) ([1]; 100 mg/kg IP daily, 24 days)	APP/Aβ42 immunoreactivity in organoids ([2]; AG27606 and UKBi011A organoids, 10 µM)	Aβ42 in organoids by ELISA ([2]; AG27606 organoids, RIPA-soluble and formic acid-solubilized fractions)	CAPRIN1–APP colocalization in organoids ([2]; AG27606 organoids, treated for three months)	Intracellular APP (western blot) ([3]; HEK-APP695WT cells, increasing concentrations)	Effects on APP and Aβ42 in CAPRIN1 KO cells ([3]; sgCAPRIN1 HEK-APP695WT cells, 10 µM)
COc1cccc(NC(=O)Nc2nc3ccc(C(=O)N4CCOCC4)cc3s2)c1 [compound 0152]	significantly reduced	drastically reduced fibrillar Aβ plaques	significant reduction	significant reductions	marked decreases	reduced fibrillar Aβ plaques	minimal changes	reduced APP/Aβ42 levels	significantly reduced Aβ42 levels	increased CAPRIN1–APP colocalization	–	–
N#Cc1cccc(NC(=O)Nc2nc3ccc(C(=O)N4CCOCC4)cc3s2)c1 [compound 0043]	–	–	–	–	–	–	–	–	–	–	reduced intracellular APP	abolished

Reference: paper PMC13534789, “Molecular Glue Degraders Enhance CAPRIN1‐Dependent Lysosomal Degradation of APP and Reduce Amyloid β in Alzheimer's Disease” (Advanced Science, 2026)
